Results: patent US20240124504A1, “AROMATIC HETEROCYCLIC COMPOUND, AND PHARMACEUTICAL COMPOSITION AND APPLICATION THEREOF” (GT APEIRON THERAPEUTICS LIMITED, priority 2020, published 2024)

How the values were obtained:
[1] = biological target: T1, CDK12 (aa686-1082)/cyclinK complex (Homo sapiens, UniProt Q9NYV4); assay: In-vitro enzymatic inhibitory activity testing, CDK12 inhibition assay (Caliper EZ Reader II); type: biochemical; conditions: CDK12/cyclinK 50 nM, 180 min at 27° C.; read-out: CDK12 IC50
T1 construct: A CDK12 (aa686-1082)/cyclinK complex (50 nM)
T1 sequence (Q9NYV4 686-1082, species assumed): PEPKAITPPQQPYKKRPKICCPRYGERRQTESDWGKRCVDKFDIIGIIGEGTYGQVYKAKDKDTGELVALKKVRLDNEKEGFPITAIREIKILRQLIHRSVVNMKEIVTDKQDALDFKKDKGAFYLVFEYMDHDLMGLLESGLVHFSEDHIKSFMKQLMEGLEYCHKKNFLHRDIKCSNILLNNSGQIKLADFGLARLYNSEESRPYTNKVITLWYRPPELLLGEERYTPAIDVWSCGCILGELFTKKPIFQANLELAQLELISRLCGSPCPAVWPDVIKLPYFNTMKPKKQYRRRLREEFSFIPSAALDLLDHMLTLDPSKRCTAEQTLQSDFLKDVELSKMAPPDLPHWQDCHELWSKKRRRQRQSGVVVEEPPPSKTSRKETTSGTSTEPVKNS
T1 sequence (O75909 whole entry partner, species assumed, the tested form may be a part): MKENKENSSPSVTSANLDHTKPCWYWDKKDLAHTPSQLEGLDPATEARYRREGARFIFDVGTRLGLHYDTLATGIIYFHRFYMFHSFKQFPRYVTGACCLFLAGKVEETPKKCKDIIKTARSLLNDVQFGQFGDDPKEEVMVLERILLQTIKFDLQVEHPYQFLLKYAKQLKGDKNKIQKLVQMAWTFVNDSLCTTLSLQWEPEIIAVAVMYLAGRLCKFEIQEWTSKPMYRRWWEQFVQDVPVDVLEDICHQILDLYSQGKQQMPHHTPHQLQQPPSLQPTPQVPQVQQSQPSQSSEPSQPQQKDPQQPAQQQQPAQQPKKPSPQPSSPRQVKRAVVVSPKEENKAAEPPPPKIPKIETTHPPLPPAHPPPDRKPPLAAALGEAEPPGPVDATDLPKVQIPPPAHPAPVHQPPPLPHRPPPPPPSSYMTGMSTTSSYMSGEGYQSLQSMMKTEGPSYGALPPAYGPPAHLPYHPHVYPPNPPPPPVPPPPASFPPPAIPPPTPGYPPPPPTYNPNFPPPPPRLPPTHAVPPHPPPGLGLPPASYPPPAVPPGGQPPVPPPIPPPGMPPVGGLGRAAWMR
Procedure, shortened: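 Caliper EZ Reader II mobility-shift separation of 5-FAM-CDK9tide substrate (2 μM) from phosphoproduct, using 50 nM CDK12 (aa686-1082)/cyclinK in 80 mM MES pH 6.5, 10 mM MgCl2, 0.01% Tween 20, 50 ug/mL BSA. Compound pre-incubated 10 min with enzyme, then substrate/ATP added for 180 min at 27° C; EDTA stop. IC50 by nonlinear dose-response regression.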

[2] = system: human breast cancer cells HCC70; assay: Cell biological activity detection (CyQuant, 72 hours), HCC70; type: cell-based; conditions: incubation for 72 hours
Procedure, shortened: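 A2780 and HCC70 cells seeded at 2000/well in RPMI 1640 + 10% FBS, treated next day with 9-point compound dilutions (top 10 μM, 1:4; 0.2% DMSO) for 72 h at 37 °C. Cell number read by CyQuant Direct nucleic acid stain (ex 488 nm); IC50 from dose–response fit.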

[3] = biological target: CDK7/cyclinH/MAT1 complex (Homo sapiens, UniProt P50613); assay: In-vitro enzymatic inhibitory activity testing, CDK7 inhibition assay (Caliper EZ Reader II); type: biochemical; conditions: CDK7/cyclinH/MAT1 6 nM, 180 min at 27° C.
Sequence of CDK7/cyclinH/MAT1 complex (P50613 whole entry, species assumed): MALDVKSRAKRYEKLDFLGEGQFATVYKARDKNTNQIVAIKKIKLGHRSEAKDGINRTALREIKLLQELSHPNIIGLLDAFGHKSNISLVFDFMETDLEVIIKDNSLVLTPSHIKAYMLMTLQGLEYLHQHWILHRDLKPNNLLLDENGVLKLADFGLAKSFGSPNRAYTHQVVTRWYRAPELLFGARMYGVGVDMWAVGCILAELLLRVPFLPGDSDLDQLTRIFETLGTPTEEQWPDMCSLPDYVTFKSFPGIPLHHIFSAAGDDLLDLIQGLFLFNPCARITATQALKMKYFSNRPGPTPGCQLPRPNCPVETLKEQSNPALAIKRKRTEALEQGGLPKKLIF
Sequence of CDK7/cyclinH/MAT1 complex (P51946 whole entry partner, species assumed): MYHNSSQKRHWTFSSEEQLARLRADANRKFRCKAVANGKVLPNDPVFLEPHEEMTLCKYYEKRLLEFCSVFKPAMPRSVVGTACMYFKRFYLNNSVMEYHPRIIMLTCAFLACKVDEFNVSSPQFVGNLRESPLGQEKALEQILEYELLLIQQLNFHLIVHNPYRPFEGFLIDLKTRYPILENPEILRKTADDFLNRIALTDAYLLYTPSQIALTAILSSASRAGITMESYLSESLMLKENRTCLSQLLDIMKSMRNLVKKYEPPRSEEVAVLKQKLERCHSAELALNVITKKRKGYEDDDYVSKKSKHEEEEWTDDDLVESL
Sequence of CDK7/cyclinH/MAT1 complex (P51948 whole entry partner, species assumed): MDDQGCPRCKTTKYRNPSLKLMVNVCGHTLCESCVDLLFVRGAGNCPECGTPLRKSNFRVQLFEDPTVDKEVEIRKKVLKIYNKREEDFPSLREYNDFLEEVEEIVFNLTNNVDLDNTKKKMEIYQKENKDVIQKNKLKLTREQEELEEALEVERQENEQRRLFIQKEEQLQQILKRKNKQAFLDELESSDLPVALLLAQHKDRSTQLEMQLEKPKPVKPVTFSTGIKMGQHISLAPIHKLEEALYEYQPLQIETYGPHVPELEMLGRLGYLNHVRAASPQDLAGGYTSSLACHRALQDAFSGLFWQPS
Procedure, shortened: (§1)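 Enzyme preincubated 10 min with compound, then peptide substrate plus ATP added in 80 mM MES pH 6.5, 10 mM MgCl2 buffer; 180 min at 27 °C, stopped with EDTA.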

[4] = biological target: CDK9/cyclinT1 complex (Homo sapiens, UniProt P50750); assay: In-vitro enzymatic inhibitory activity testing, CDK9 inhibition assay (Caliper EZ Reader II); type: biochemical; conditions: CDK9/cyclinT1 8 nM, 180 min at 27° C.
Sequence of CDK9/cyclinT1 complex (P50750 whole entry, species assumed): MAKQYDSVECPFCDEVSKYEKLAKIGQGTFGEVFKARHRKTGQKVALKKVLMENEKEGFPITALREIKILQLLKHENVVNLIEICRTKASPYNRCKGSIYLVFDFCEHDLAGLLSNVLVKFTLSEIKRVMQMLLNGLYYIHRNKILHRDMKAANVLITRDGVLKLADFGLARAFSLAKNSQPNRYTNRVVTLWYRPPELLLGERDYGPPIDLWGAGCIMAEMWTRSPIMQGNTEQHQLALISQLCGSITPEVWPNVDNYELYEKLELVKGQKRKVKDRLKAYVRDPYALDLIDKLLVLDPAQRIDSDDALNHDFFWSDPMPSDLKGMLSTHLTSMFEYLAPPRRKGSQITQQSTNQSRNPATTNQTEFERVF
Sequence of CDK9/cyclinT1 complex (O60563 whole entry partner, species assumed): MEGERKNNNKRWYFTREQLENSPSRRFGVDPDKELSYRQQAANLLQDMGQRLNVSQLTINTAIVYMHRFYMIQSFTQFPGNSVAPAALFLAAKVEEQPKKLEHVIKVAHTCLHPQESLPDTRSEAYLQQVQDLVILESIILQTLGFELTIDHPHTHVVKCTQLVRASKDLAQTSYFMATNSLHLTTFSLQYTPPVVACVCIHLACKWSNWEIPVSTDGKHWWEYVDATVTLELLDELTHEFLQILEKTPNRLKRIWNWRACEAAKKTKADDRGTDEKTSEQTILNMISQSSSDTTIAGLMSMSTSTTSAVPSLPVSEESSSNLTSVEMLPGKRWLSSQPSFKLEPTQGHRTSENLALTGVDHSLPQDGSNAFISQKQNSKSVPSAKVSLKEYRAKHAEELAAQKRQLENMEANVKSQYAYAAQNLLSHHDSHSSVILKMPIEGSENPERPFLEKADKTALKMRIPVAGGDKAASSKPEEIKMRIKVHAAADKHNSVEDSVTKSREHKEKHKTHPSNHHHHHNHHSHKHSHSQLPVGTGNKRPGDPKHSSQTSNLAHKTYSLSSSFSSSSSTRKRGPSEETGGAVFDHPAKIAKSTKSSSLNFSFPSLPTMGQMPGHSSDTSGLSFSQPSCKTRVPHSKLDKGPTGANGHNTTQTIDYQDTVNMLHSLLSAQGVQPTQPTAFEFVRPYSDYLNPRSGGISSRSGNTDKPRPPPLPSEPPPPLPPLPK
Procedure, shortened: as §1

| Structure (SMILES) | IC50 [1] [µM] | IC50 ([2]; Homo sapiens, HCC70, 72 h) [nM] | IC50 [3] [nM] | IC50 [4] [µM] | IC50 [2] [nM] |
| --- | --- | --- | --- | --- | --- |
| CC1(C)COCC(Nc2ncc(C(F)(F)F)c(-c3c[nH]c4c(P(C)(C)=O)cccc34)n2)CN1 (single isomer, unassigned) [Compound 91, (3-(2-((3,3-dimethyl-1,4-oxazepan-6-yl)amino)-5-(trifluoromethyl)pyrimidin-4-yl)-1H-indole-7-yl)dimethylphosphine oxide] | 5 to 50 | 20 to 200 | < 20 | > 50 | – |
| CP(C)(=O)c1cccc2c(-c3nc(NC4(CO)CCOC4)ncc3C(F)(F)F)c[nH]c12 (single isomer, unassigned) [Compound 118] | > 50 | < 20 | < 20 | > 50 | – |
| CP(C)(=O)c1cccc2c(-c3nc(NC4(CO)CCOC4)ncc3C(F)(F)F)c[nH]c12 (single isomer, unassigned) [Compound 119] | > 50 | – | 20 to 200 | > 50 | 20 to 200 |
| CC(O)[C@H](C)Nc1ncc(C(F)(F)F)c(-c2c[nH]c3c(P(C)(C)=O)cccc23)n1 (single isomer, unassigned) [Compound 129] | > 50 | 20 to 200 | < 20 | > 50 | – |
| CC(O)[C@H](C)Nc1ncc(C(F)(F)F)c(-c2c[nH]c3c(P(C)(C)=O)cccc23)n1 (single isomer, unassigned) [Compound 130] | > 50 | – | < 20 | > 50 | 20 to 200 |
| CP(C)(=O)c1cccc2c(-c3nc(NCC4CC4CO)ncc3C(F)(F)F)c[nH]c12 (single isomer, unassigned) [Compound 143] | > 50 | 20 to 200 | < 20 | > 50 | – |
| CP(C)(=O)c1cccc2c(-c3nc(NCC4CC4CO)ncc3C(F)(F)F)c[nH]c12 (single isomer, unassigned) [Compound 144] | > 50 | – | 20 to 200 | > 50 | 20 to 200 |
| CC(CO)CNc1ncc(C(F)(F)F)c(-c2c[nH]c3c(P(C)(C)=O)cccc23)n1 (single isomer, unassigned) [Compound 149] | > 50 | < 20 | < 20 | > 50 | – |
| CC(CO)CNc1ncc(C(F)(F)F)c(-c2c[nH]c3c(P(C)(C)=O)cccc23)n1 (single isomer, unassigned) [Compound 150] | > 50 | – | < 20 | > 50 | < 20 |
| C[C@@H](CO)Nc1ncc(C(F)(F)F)c(-c2c[nH]c3c(P(C)(C)=O)c(C#N)ccc23)n1 [Compound 79, (S)-7-(dimethylphosphoryl)-3-(2-((1-hydroxy-propan-2-yl)amino)-5-(trifluoromethyl)pyrimidin-4-yl)-1H-indole-6-carbonitrile] | > 50 | 20 to 200 | < 20 | > 50 | – |
| C[C@@H](CO)Nc1ncc(C(F)(F)F)c(-c2c[nH]c3c(P(C)(C)=O)cccc23)n1 [Compound 82, (S)-(3-(2-((1-hydroxypropyl-2-yl)amino)-5-(trifluoromethyl)pyrimidin-4-yl)-1H-indole-7-yl)dimethylphosphine oxide] | 5 to 50 | < 20 | < 20 | > 50 | – |
| CP(C)(=O)c1cccc2c(-c3nc(N[C@H]4CC[C@H](O)C4)ncc3C(F)(F)F)c[nH]c12 [Compound 83] | 5 to 50 | < 20 | < 20 | 5 to 50 | – |
| CC(C)(CO)Nc1ncc(C(F)(F)F)c(-c2c[nH]c3c(P(C)(C)=O)cccc23)n1 [Compound 85, (3-(2-((1-hydroxy-2-methylpropan-2-yl)amino)-5-(trifluoromethyl)pyrimidin-4-yl)-1H-indole-7-yl)dimethylphosphine oxide] | > 50 | 20 to 200 | < 20 | > 50 | – |
